Data: publication PMC10218498, “Exploring BenzylethoxyAryl Urea Scaffolds for Multitarget Immunomodulation Therapies” (International Journal of Molecular Sciences, 2023)

Key:
[1] = biological target: PD-L1 (Homo sapiens, UniProt Q9NZQ7); assay: PD-L1 relative quantification by flow cytometry in MCF-7; format: cell-based; design: endogenous in cells; host or cells: MCF-7; conditions: MCF-7, 20 µM, 24 h; for % PD-L1 Memb. / % PD-L1 Total: control = 100
Protocol: In view of the good results obtained for these selected compounds, we decided to extend the study to a third cancer cell line, MCF-7 (Human breast cancer adenocarcinoma). First, we determined the IC50 values of the derivatives and their SI indexes (see Table 4). Then, we determined the effect of the selected compounds on the biological targets, PD-L1 and VEGFR-2, by flow cytometry. […] As usually, the assay was performed at a concentration of 20 µM for 24 h.
To study the effect of the compounds on every biological target in cancer cell lines, the compounds were used at 20 µM dose.
For the assay, 10^5 cells per well were incubated for 24 h with the corresponding dose of the tested compound in a total volume of 500 μL of their growth media.
On the one hand, to detect total PD-L1 and VEGFR-2, after the cell treatments, they were collected and fixed with 4% in PBS paraformaldehyde. After fixation, a treatment with 0.5% in PBS TritonTM X-100 was performed, and finally, cells were stained with FITC Mouse monoclonal Anti-Human VEGFR-2 (ab184903) and Alexa Fluor® 647 Rabbit monoclonal Anti-PD-L1 (ab215251).
On the other hand, to detect membrane PD-L1 and VEGFR-2, the process was the same, avoiding the treatment with 0.5% in PBS TritonTM X-100 step.

[2] = system: LCK; assay: Immunoblotting of OT-1 CTL signaling proteins: LCK; format: cell-based, mice; conditions: OT-1, 20 μM, 24 h
Text: We next studied the effect of our compounds on the signaling cascade downstream of the TCR. […] However, both the expression and phosphorylation of LCK were increased in response to all compounds. The effects on ZAP70 and LAT were more complex, with opposing effects on total protein expression versus phosphorylation. Thus, all compounds modulated signaling downstream of the TCR in a manner that is likely to impact T-cell activation and activity.
CD8+ cells were obtained from the inguinal, axillary, brachial, and mesenteric lymph nodes previously collected from OT-1 mice. Lymph node cells were isolated by mashing through a […] cell strainer. Cells were resuspended in IMDM cell media at a concentration of 0.3 million cells/mL. N4 ovalbumin peptide was added at a concentration of 10 nM, and cells were incubated for 48 h at 5% CO2, 37 °C. On day 2 from recollection, cells were pelleted at 1300 rpm for 5 min and washed with PBS to remove N4 peptide. The cell pellet was resuspended in fresh IMDM media in a new flask in a 0.3 million cells/mL and supplemented with IL-2 at 20 ng/mL. After incubation for a further 48 h (day 4), cells were re-seeded in fresh IMDM media at a concentration of 0.3 million cells/mL supplemented with IL-2 at 20 ng/mL. Cells were cultured for a further 48 h prior to use on day 6 in functional assays.
To study the effect of the compounds in the signaling pathway of CTLs, the compound was incubated for 24 h at 20 μM. After this time, cells were collected and washed twice in PBS and lysed in radioimmunoprecipitation assay (RIPA) lysis buffer (50 mM tris-HCl at pH 7.4, 150 mM sodium chloride, 5 mM EGTA, 0.1% SDS, 1% NP-40, and 1% deoxycholate) supplemented with a protease and phosphatase inhibitor cocktail (mini complete ULTRA Protease tablet and phosSTOP tablet from Roche, Basel, Switzerland). Lysates were clarified by high-speed centrifugation (17,000 rpm for 15 min at 4 °C). Protein concentration was measured using a Micro BCA Protein Assay (Thermo Scientific, Waltham, MA, USA), and 10 μg to 30 μg of total protein were supplemented with 2X SDS sample buffer [tris (pH 6.8), 20% glycerol, 5% SDS, b-mercaptoethanol, and bromophenol blue) and boiled at 95 °C for 5 min. […] Bound Ab was detected by incubation with anti-rabbit and anti-mouse horseradish peroxidase secondary Ab (Cell Signaling Technology) and visualized using the Bio-Rad ChemiDoc MP Imaging System.

[3] = system: HMEC-1 microtube formation; assay: Tube formation inhibition assay on Matrigel; format: cell-based, human; conditions: HMEC-1 on Matrigel, 24 h
Protocol: The capacity to inhibit the formation of a new vasculature network formed by HMEC-1 was evaluated on compounds 8 and 14 at different concentrations.
Wells of an IBIDI μ-slide angiogenesis (IBIDI, Martinsried, Germany) were coated with 15 μL of Matrigel® (10 mg/mL, BD Biosciences) at 4 °C. After gelatinization at 37 °C for 30 min, HMEC-1 cells were seeded at 2 × 10^4 cells/well in 25 μL of culture medium on top of the Matrigel and were incubated 30 min at 37 °C while are attached. Then, compounds were added and dissolved in 25 μL of culture medium, and after 24 h of incubation at 37 °C, tube formation was evaluated.

Sequence of PD-L1 (Q9NZQ7 19-290): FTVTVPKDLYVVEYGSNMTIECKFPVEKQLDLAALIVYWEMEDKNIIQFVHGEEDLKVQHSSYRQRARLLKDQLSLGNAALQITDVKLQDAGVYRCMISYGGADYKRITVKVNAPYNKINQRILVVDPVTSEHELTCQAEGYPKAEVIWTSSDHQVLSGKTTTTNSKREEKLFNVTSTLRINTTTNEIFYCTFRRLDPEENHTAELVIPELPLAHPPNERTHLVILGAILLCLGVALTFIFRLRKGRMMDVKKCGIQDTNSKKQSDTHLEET

Cc1c(COc2ccc(CN3CCCCC3C(=O)O)cc2Br)cccc1-c1ccccc1 (centres unmarked) [BMS-8, reference compound]
% PD-L1 Memb. [1]: 88 ± 11% | % PD-L1 Total [1]: 197%

COc1ccc(COc2cccc(NC(=O)Nc3ccc(F)cc3)c2)cc1 [Compound 2]
melting point: 201 to 205 °C | % PD-L1 Memb. [1]: 81 ± 10% | % PD-L1 Total [1]: 62 ± 15% | LCK protein expression (Western blot quantification) [2]: 176 | pY394-LCK protein expression (Western blot quantification) [2]: 143 | pY505-LCK protein expression (Western blot quantification) [2]: 140

COc1ccc(COc2cccc(NC(=O)Nc3ccc(Br)cc3)c2)cc1 [Compound 8]
% PD-L1 Memb. [1]: 94 ± 12% | % PD-L1 Total [1]: 87 ± 23% | Minimum Active Conc. (inhibition of microtube formation) [3]: 20 µM

COc1ccc(COc2cccc(NC(=O)Nc3ccc(OC)cc3)c2)cc1 [Compound 11]
inhibition at 20 µM ([1]; MCF7, read-out: inhibition rate for total PD-L1): ~40% | % PD-L1 Memb. [1]: 100 ± 7% | % PD-L1 Total [1]: 57 ± 15% | LCK protein expression (Western blot quantification) [2]: 168 | pY394-LCK protein expression (Western blot quantification) [2]: 184 | pY505-LCK protein expression (Western blot quantification) [2]: 157

COc1ccc(COc2cccc(NC(=O)Oc3ccccc3)c2)cc1 [Compound 14]
% PD-L1 Memb. [1]: 81 ± 8% | % PD-L1 Total [1]: 85 ± 15% | LCK protein expression (Western blot quantification) [2]: 175 | pY394-LCK protein expression (Western blot quantification) [2]: 130 | pY505-LCK protein expression (Western blot quantification) [2]: 145 | Minimum Active Conc. (inhibition of microtube formation) [3]: 20 µM
